In BindingDB's records for doi:10.1016/j.chembiol.2011.05.012 (University of Bern, 2011) one finds Ki data, which are given here for 20 compounds.

“And” between values parts separate entries of the source, which are not always exact repeats. Identical values can stand only once.

As usually defined, the Ki is the equilibrium dissociation constant of an inhibitor or competing ligand from its target. Read a high Ki as a looser hold on the target.

The target in one assay is Cannabinoid receptor 1 (Homo sapiens, UniProt P21554). Kind of assay: Binding Assay. From the text: (§1) Binding assay with hCB1 and hCB2 receptors.
Another assay concerns the target Cannabinoid receptor 2 (Homo sapiens, UniProt P34972). Kind of assay: Binding Assay.
Description: as §1

Sequence of Cannabinoid receptor 2 (P34972 whole entry): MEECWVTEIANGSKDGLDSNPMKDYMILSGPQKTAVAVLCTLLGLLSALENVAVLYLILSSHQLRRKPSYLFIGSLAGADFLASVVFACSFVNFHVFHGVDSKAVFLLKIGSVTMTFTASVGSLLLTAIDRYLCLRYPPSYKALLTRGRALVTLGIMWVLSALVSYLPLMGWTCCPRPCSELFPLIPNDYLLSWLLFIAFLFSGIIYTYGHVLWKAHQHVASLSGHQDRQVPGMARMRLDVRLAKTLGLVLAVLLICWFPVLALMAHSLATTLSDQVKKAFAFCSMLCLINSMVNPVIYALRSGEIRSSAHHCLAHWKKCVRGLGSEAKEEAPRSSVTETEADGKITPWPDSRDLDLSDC
Sequence of Cannabinoid receptor 1 (P21554 whole entry): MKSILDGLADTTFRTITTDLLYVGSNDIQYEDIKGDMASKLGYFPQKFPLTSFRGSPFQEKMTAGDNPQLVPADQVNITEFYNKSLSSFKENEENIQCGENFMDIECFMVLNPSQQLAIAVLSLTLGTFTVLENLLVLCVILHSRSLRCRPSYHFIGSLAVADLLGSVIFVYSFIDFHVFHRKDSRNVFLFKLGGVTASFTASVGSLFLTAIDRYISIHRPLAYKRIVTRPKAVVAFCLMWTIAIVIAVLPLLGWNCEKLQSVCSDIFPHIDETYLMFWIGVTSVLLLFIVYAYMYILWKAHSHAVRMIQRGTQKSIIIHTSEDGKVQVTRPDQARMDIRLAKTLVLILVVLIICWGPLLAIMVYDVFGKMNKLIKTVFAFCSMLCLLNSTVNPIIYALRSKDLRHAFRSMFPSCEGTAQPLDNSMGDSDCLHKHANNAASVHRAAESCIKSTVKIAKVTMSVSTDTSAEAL

For the compound `COc1ccc(-c2cc(CC(C)Br)ccc2O)cc1CC(C)Br` (stereo unspecified) [Magreth-11c], the Ki on Cannabinoid receptor 1 was over 5000 nM; at Cannabinoid receptor 2, 427 nM.
With `C=CCc1ccc(O)c(-c2cc(CC=C)ccc2O)c1` [2-(2-hydroxy-5-prop-2-enylphenyl)-4-prop-2-enylphenol], the Ki at Cannabinoid receptor 2 is over 2000 nM.
On to `C=CCc1ccc(OCCCCC)c(-c2ccc(O)c(CC=C)c2)c1` [Magreth-18a], for which the Ki on Cannabinoid receptor 1 is over 5000 nM; at Cannabinoid receptor 2, 102 nM.
As to `CCCCC/C=C/C/C=C/C/C=C/C/C=C/CCCC(=O)OC(CO)CO` [2-Arachidonoylglycerol, 2-AG], on Cannabinoid receptor 2, the Ki stood at 892 nM.
Turning to `C=CCc1ccc(O)c(-c2ccc(OC)c(/C=C/C)c2)c1` [Magreth-3a], the Ki on Cannabinoid receptor 1 was over 5000 nM; on Cannabinoid receptor 2, 40.8 nM and 59.1 nM.
As to `C=CCc1ccc(O)c(-c2ccc(O)c(/C=C/C)c2)c1` [Magreth-4], the inhibition constant Ki at Cannabinoid receptor 1 was over 5000 nM; at Cannabinoid receptor 2 it was 1760 nM.
Taken in the same sequence, the figures for `C=CCc1ccc(O)c(-c2ccc(OC)c(CC(C)Br)c2)c1` (stereo unspecified) [Magreth-11b] were 860 nM and 84 nM.
With `C=CCc1ccc(OCCC)c(-c2ccc(O)c(CC=C)c2)c1` [Magreth-17a], the results for the Ki on Cannabinoid receptor 1 and on Cannabinoid receptor 2 were over 5000 nM and 57 nM, respectively.
Taken in the same sequence, the figures for `C=CCc1cc(-c2cc(CC(C)Br)ccc2O)ccc1O` (stereo unspecified) [Magreth-12a] were over 5000 nM and 1260 nM.
Taken in the same sequence, the figures for `C=CCc1ccc(O)c(-c2ccc(OCCC)c(CC=C)c2)c1` [Magreth-17b] were over 5000 nM and 46 nM.
Taken in the same sequence, the figures for `CC(Br)Cc1ccc(O)c(-c2ccc(O)c(CC(C)Br)c2)c1` (stereo unspecified) [Magreth-12b] were over 5000 nM and 680 nM.
In the case of `CCCc1ccc(O)c(-c2ccc(OC)c(CCC)c2)c1`, the Ki at Cannabinoid receptor 1 is over 2000 nM; on Cannabinoid receptor 2, 74 nM.
As for `C=CCc1ccc(O)c(-c2ccc(OC)c(CC=C)c2)c1` [Magreth-14a], the inhibition constant (Ki) on Cannabinoid receptor 1 was 790 nM; at Cannabinoid receptor 2, 43.9 nM and 138 nM.
Turning to `CCCc1ccc(O)c(-c2ccc(O)c(CCC)c2)c1`, the results for the Ki on Cannabinoid receptor 1 and on Cannabinoid receptor 2 were over 5000 nM and 1300 nM, respectively.
Take `C=CCc1ccc(OCC)c(-c2ccc(OCC)c(CC=C)c2)c1` [Magreth-19]: the results for the Ki at Cannabinoid receptor 1 and on Cannabinoid receptor 2 were over 3000 nM and 134 nM, respectively.
`C=CCc1ccc(O)c(-c2ccc(O)c(CC=C)c2)c1` [3',5-diallylbiphenyl-2,4'-diol] registered a Ki at Cannabinoid receptor 2 of 1760 nM.
Turning to `C=CCc1ccc(O)c(-c2ccc(OCCCCC)c(CC=C)c2)c1` [Magreth-18b], the inhibition constant Ki at Cannabinoid receptor 1 was over 5000 nM; on Cannabinoid receptor 2 it was over 3000 nM.
For `C=CCc1ccc(O)c(-c2ccc(OCC)c(CC=C)c2)c1` [Magreth-16b], the Ki at Cannabinoid receptor 1 was found to be 970 nM; at Cannabinoid receptor 2, 40 nM.
Taken in the same sequence, the figures for `C=CCc1cc(-c2cc(CC(C)Br)ccc2O)ccc1OC` (stereo unspecified) [Magreth-11a] were over 5000 nM and 1080 nM.
For `C=CCc1ccc(OCC)c(-c2ccc(O)c(CC=C)c2)c1` [Magreth-16a], the Ki at Cannabinoid receptor 2 was found to be 51 nM.
